Source: US9371539B2, “DNA encoding ring zinc-finger protein and the use of the DNA in vectors and bacteria and in plants” (Board of Trustees of Michigan State University, priority 2006, dated 2016)

T1: AtTLP9 (Arabidopsis thaliana, UniProt Q9SQU1)
T1 construct: expressed in transfected cells; host or cells: yeast strain AH109
T1 sequence (Q9SQU1 1-380): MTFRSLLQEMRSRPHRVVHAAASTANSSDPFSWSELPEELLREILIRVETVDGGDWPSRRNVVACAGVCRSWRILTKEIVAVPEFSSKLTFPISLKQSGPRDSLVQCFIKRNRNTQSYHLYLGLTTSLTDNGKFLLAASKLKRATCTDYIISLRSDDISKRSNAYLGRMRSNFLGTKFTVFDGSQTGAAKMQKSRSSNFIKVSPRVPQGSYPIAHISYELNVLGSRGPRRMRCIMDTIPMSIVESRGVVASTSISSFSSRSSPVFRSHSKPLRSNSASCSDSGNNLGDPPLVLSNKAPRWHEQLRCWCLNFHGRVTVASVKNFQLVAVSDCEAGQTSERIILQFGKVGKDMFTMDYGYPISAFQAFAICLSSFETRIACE

B1: XERICO: protein encoded by Arabidopsis thaliana gene AT2G04240; 162 amino acids, RING-H2 zinc-finger motif (protein)
chain: MGLSSLPGPSEGMLCVILVNTALSISIVKGIVRSFLGIVGISLSPSSSSPSSVTVSSENSSTSESFDFRVCQPESYLEEFRNRTPTLRFESLCRCKKQADNECSVCLSKFQGDSEINKLKCGHLFHKTCLEKWIDYWNITCPLCRTPLVVVPEDHQLSSNVW

Legend:
Arabidopsis thaliana [1] = experiment: Effect of ABA on seed germination (radicle emergence >1 mm); type: in vivo
Procedure: (§1) Arabidopsis thaliana, ecotype Columbia (Col), was used as the wild-type plant for phenotypic assays for comparison to transgenic 35S::XERICO Arabidopsis thaliana, plants in these experiments. Unless noted otherwise, plants were grown under sterile conditions on MS nutrient agar media (1×MS basal medium (Sigma, stock number M5519) with 2% sucrose and 0.3% phytagel (Sigma) containing 2% sucrose or on soil in a growth chamber (16 h light/8 h dark) at 23° C., after stratification. For monitoring of hypocotyl elongation and root growth with response salt/osmotic stress, a minimum of 20 seeds were sowed on MS nutrient agar media containing specified treatments, following which the plates were held in the vertical position for 7 days. For testing the effects of ABA on germination and early seedling growth, seeds were grown horizontally. For abiotic stress treatments, wild-type seedlings were grown on MS nutrient agar media containing 2% sucrose for 10-days and then treated the stresses indicated in FIG. 1, for up to 24 hour without a treatment control. Samples were collected at the indicated time and frozen immediately in liquid N2 and were stored at −80° C. until use. Experiments were performed in triplicates and repeated at least three times.
(§2) Since the hypersensitivity to salt or osmotic stress was the most prominent phenotype of the three independent T3 homozygous lines of 35S::XERICO plants, the functional relationship of the gene with ABA, a plant stress hormone involved in salt and drought stress adaptation, was investigated. […] Although 35S::XERICO plants germinated slightly later than wild-type even in the absence of exogenous ABA (FIG. 3c), germination was further delayed following ABA treatment. At 0.1 μM of ABA, 13% of 35S::XERICO plants were germinated 1.5 day after sowing, while 43% of wild-type seeds germinated. […] Germination was scored by the emergence of a radicle (>1 mm). The number of ‘cotyledon opening’ of seedlings at five days after sowing were counted and recorded. […]

Arabidopsis thaliana [2] = experiment: Effect of ABA on early seedling growth and cotyledon opening; type: in vivo
Procedure: as §1, §2

AtNCED3 = experiment: RNA gel blot analysis of response to ABA treatment; type: in vivo, Arabidopsis thaliana; details: 10 μM ABA up to 24 hour; both wild-type and 35S::XERICO plants
Procedure: (a) RNA gel blot analysis showing a response to ABA. Wild-type (WT) and 35S::XERICO plants were grown on MS nutrient agar media for 10 days and then treated with 10 μM of ABA for up to 24 hour. Total RNA was isolated at the indicated times after treatment. Each lane was loaded with 10 μg total RNA. The RNA blot was hybridized with [^32P]-labeled gene specific probes for AtNCED3 (SEQ ID NO:452), AtCYP707A2 (SEQ ID NO:428) and RD29a (SEQ ID NO:386). Probing with Actin 8 (SEQ ID NO:455) was used as a RNA loading control. (b) RNA gel blot analysis in response to drought treatment. Wild-type (WT) and 35S::XERICO plants were grown on MS medium for 14 days and then dehydrated (see, EXAMPLE I).
Total RNA was extracted using the Trizol reagent method (Gibco-BRL, Gaithersburg, Md.). For northern blot analysis, 10 μg of total RNA from each sample was denatured and separated using a 1% agarose-formaldehyde gel. RNA was transferred onto a Hybond-N+ membrane (Stratagene, La Jolla, Calif.) by capillary action. Gene-specific probes were prepared by PCR and labeled with [^32P]-dCTP using a Prime-it II Random Primer Labeling kit (Stratagene, La Jolla, Calif.). […]

XERICO = experiment: Expression of XERICO upon ABA treatment; type: in vivo, Arabidopsis thaliana; details: ABA 10 μM; up to 3-hours post-treatment
Procedure: Total RNA was extracted using the Trizol reagent method (Gibco-BRL, Gaithersburg, Md.). For northern blot analysis, 10 μg of total RNA from each sample was denatured and separated using a 1% agarose-formaldehyde gel. RNA was transferred onto a Hybond-N+ membrane (Stratagene, La Jolla, Calif.) by capillary action. Gene-specific probes were prepared by PCR and labeled with [^32P]-dCTP using a Prime-it II Random Primer Labeling kit (Stratagene, La Jolla, Calif.). Primers used in this analysis were following: XERICO (forward; SEQ ID NO:439, 5′-[…]-3 and reverse; SEQ ID NO:440, 5′-[…]-3′), AtNCED3 (forward, SEQ ID NO:441, 5′-[…]-3′ and reverse; SEQ ID NO:442, 5′-[…]-3′), AtCYP707A2 (forward; SEQ ID NO:443, 5′-[…]-3′ and reverse; SEQ ID NO:444, 5′-[…]-3′), RD29a (forward; SEQ ID NO:445, 5′-[…]-3′ and reverse; SEQ ID NO:446, 5′-[…]-3′), and Actin 8 (forward; SEQ ID NO:447, 5′-[…]-3′ and reverse; SEQ ID […], 5′-[…]-3′). Hybridization was carried out using ULTRAhyb® according to the manufacturer's instructions (Ambion, Austin, Tex.), and a Kodak Biomax film (Sigma) was exposed to the blot. An Actin 8 gene (SEQ ID NO:457) or ethidium bromide-stained ribosomal RNA was used as a loading control.

AtTLP9 = biological target: T1, AtTLP9; experiment: Yeast two-hybrid screening; type: binding; details: yeast AH109; truncated XERICO without transmembrane domain as bait
Procedure: (§3) Two-hybrid screening was performed using the BD Matchmaker™ library construction and screening kit (Clonetech, Palo Alto, Calif.); pGADT7 was used as the base for a GAL4 activation domain (AD) vector and pGBKT7 was used for a GAL4 DNA-binding domain (DNA-BD) vector (pGADT7 and pGBKT7 were obtained from “BD Matchmaker Library Construction & Screening Kits” (Clontech, Palo Alto, Calif.)). The yeast strain AH109 (leu^−, trp^−, Ade^−, his^−) (obtained from “BD Matchmaker Library Construction & Screening Kits (Clontech, Palo Alto, Calif.)) with chromosomally integrated reporter genes lacZ and HIS under the control of the GAL1 promoter activated by the GAL4 transcription factor was used to host all constructs. Truncated XERICO cDNA without a transmembrane domain (SEQ ID NO: 451) was amplified by PCR using primers 5′-[…]-3′ (forward; SEQ ID NO:449) and 5′-[…]-3′ (reverse; SEQ ID NO:450) designed to contain EcoRI and PstI site, respectively. The amplified PCR product was digested with EcoRI and PstI, and subcloned into pGBKT7 as a fusion to the DNA binding domain of GAL4 and verified by sequencing. The pGBKT7/XERICO vector was used as a bait to screen an Arabidopsis thaliana cDNA library in pGADT7 as a fusion to the activation domain of GAL4. […]

AtUBC8 = biological target: T2, AtUBC8 (Arabidopsis thaliana, UniProt P35131); experiment: Yeast two-hybrid screening; type: binding; details: yeast AH109; truncated XERICO without transmembrane domain as bait
T2 construct: expressed in transfected cells; host or cells: yeast strain AH109
Procedure: as §3

T2 sequence (P35131 whole entry, the tested form may be a part): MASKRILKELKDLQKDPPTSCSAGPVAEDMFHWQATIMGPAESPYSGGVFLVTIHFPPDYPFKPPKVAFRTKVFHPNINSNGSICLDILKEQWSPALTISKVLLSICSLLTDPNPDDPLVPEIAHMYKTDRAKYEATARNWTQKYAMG

Molecule | plants germinated (Arabidopsis thaliana [1]; 0.1 μM ABA, 1.5 day after sowing, 35S::XERICO plants) | seeds germinated (Arabidopsis thaliana [1]; 0.1 μM ABA, 1.5 day after sowing, wild-type seeds) | plants failed to germinate (Arabidopsis thaliana [1]; 1.0 μM ABA, prolonged incubation, 35S::XERICO plants) | early seedling growth (Arabidopsis thaliana [2]; 0.1 μM exogenous ABA, three independent lines of 35S::XERICO plants, compared to wild-type) | cotyledon opening (Arabidopsis thaliana [2]; 1 μM ABA, five days after sowing, 35S::XERICO plants) | plants with opened cotyledons (Arabidopsis thaliana [2]; 1 μM ABA, five days after sowing, wild-type plants) | transcripts of AtNCED3 (AtNCED3) | expression of XERICO (XERICO) | interaction with AtTLP9 (AtTLP9) | interaction with AtUBC8 (AtUBC8)
CC1=CC(=O)CC(C)(C)[C@@]1(O)/C=C/C(C)=C\C(=O)O [ABA, abscisic acid] | 13% | 43% | more than 20% | arrested immediately after germination | did not develop a cotyledon | approximately 80% | clearly increased | no significant changes | – | –
B1 | – | – | – | – | – | – | – | – | interacts | interacts
